Experimental data taken from US20230066049A1, “PEPTIDES USEFUL IN PRESERVATION AND/OR RESTORATION OF FUNCTIONAL PANCREATIC ISLETS AND IN TREATING DIABETES” (THE NATIONAL INSTITUTE FOR BIOTECHNOLOGY IN THE NEGEV LTD., priority 2020, published 2023).
Where two headings read alike, the source gives them in different places.

Columns and labels:
[1] = system: db/db mice; conditions: Zhang et al., 2019; cited from earlier work
[2] = system: STZ/HFD-32-fed mice; conditions: 2019, cited from earlier work
[3] = system: ob/ob mice; assay: Ob/Ob diabetes mouse model: blood glucose, body weight, Langerhans islets; assay type: in vivo; conditions: 14 mg/kg intravenous three times a week
Description: Six week old male (C57BL/6) Ob/Ob (Jackson Laboratory, Bar Harbor, Me.) mice were treated with R-Tf-D-LP4 (14 mg/Kg) from week 6 to week 13 by intravenous administration of the R-Tf-D-LP4 peptide in 100 μl of Hank's balanced salts solution (HBSS) without calcium three times a week. A control group received 100 μl of 0.8% DMSO in HBSS buffer injected intravenously. The final blood DMSO concentration was 0.07% in both control and peptide-treated mice. Blood glucose levels were measured once a week. At the end of the experiment, the mice were sacrificed, and the pancreas was removed and fixed with formaldehyde, embedded in paraffin, sectioned, and subjected to immunefluorescent (IF). The experimental protocol used in the mouse model was approved by the Institutional Animal Care and Use Committee.
(§1) Immunohistochemistry (IHC) and immunofluorescence (IF) staining was performed on 5 μm-thick formalin-fixed and paraffin-embedded pancreatic tissue sections. Sections were deparaffinized (5 minutes in xylene, 3 times), followed by rehydration with a graded ethanol series (50%, 70%, 95%, 100%). Antigen retrieval was performed by 20 min incubation in preheated 0.01 M citrate buffer, pH 6.0 at 95-98° C. Sections were washed with PBS pH 7.4 containing 0.1% Triton-X100 (PBST), incubated in 10% NGS and 1% BSA for 2 h, followed by overnight incubation at 4° C. with primary antibodies (see Table 1). Sections were then washed with PBST. For IHC staining, endogenous peroxidase activity was blocked by incubating the sections in 3% H2O2 for 15 min. Following washing with PBST, sections were incubated for 2 h with the appropriate secondary HRP-conjugated antibodies. Sections were washed with PBST and peroxidase activity was visualized by incubating with DAB. After rinsing in water, the sections were counter-stained with hematoxylin, dehydrated with a graded ethanol series (50-100%), incubated in xylene, and mounted with mounting medium. Finally, images from the sections were collected using an automatic digital slide scanner (Panoramic
MIDI II, 3DHISTECH) with the same light intensity and exposure time. Non-specific control experiments were carried out using the same protocols but omitting incubation with primary antibodies. For IF staining, sections were incubated for 2 h with the appropriate secondary Alexa Fluor conjugated antibodies. Sections were washed with PBST, counter—stained with DAPI (0.07 μg/ml), washed with PBST, and mounted with mounting media. […]
STZ/HFD-32-fed mice at the end of study before sacrifice. In the case of the ob/ob mice, weekly blood samples were collected from the tail, and blood glucose levels were measured immediately using an Accu-Check Performa blood glucose meter.

[4] = system: VDAC1; assay: VDAC1 IHC/IF staining of Langerhans islets of STZ/HFD-32-fed mice; assay type: in vivo, mouse
Description: Male C57BL/6 mice were purchased from Envigo (Jerusalem, Israel). In order to generate the diabetes-based steatosis-NASH mouse model, 2-day-old mice were subjected to a single, low dose subcutaneous injection of streptozotocin (STZ) (200 μg/mouse) and then were fed with the HFD-32 high fat diet starting at the end of week 4. The mice manifested steatosis at 6 weeks and NASH at 8 weeks. These mice are designated herein interchangeably as “NAFLD/diabetes mice model” and “STZ/HFD-32-fed mice”. Mice affected with steatosis were treated with R-Tf-D-LP4 (14 mg/kg) from week 6 to week 8, and mice affected with NASH from week 8 to week 10. The R-Tf-D-LP4 peptide at 14 mg/kg (in 100 μl of Hank's balanced salts solution (HBSS) without calcium) was administered intravenously three times a week. […]
(§2) At the end of the experiment, the mice were sacrificed by CO2 inhalation and the livers and pancreases were removed. Livers were photographed and the lipid content was assessed. […]
The expression of VDAC1 was examined in the pancreas of STZ/HFD-32 diet-fed mice, representing NAFLD affected mice on a diabetic background with and without R-Tf-D-LP4 peptide treatment as compared to the levels in islets from mice fed with chow-diet (FIG. 5). Formaldehyde-fixed, paraffin-embedded pancreas sections were analyzed by IHC staining for VDAC1 using anti-VDAC1 specific antibodies. […]

[5] = system: PDX1; assay: PDX1 IF co-staining in pancreas of STZ/HFD-32-fed mice; assay type: in vivo, mouse
Description: (§3) Male C57BL/6 mice were purchased from Envigo (Jerusalem, Israel). In order to generate the diabetes-based steatosis-NASH mouse model, 2-day-old mice were subjected to a single, low dose subcutaneous injection of streptozotocin (STZ) (200 μg/mouse) and then were fed with the HFD-32 high fat diet starting at the end of week 4. The mice manifested steatosis at 6 weeks and NASH at 8 weeks. These mice are designated herein interchangeably as “NAFLD/diabetes mice model” and “STZ/HFD-32-fed mice”. Mice affected with steatosis were treated with R-Tf-D-LP4 (14 mg/kg) from week 6 to week 8, and mice affected with NASH from week 8 to week 10. The R-Tf-D-LP4 peptide at 14 mg/kg (in 100 μl of Hank's balanced salts solution (HBSS) without calcium) was administered intravenously three times a week. Control groups were intravenously injected with 100 μl of 0.8% DMSO in HBSS buffer from week 6 to week 8 for steatosis affected mice and from week 8 to week […] for NASH affected mice. The final blood DMSO concentration was 0.07% in control and peptide-treated mice.
as §2

[6] = system: Glut-2; assay: Glut-2 IF staining of pancreatic sections of STZ/HFD-32-fed mice; assay type: in vivo, mouse; conditions: STZ/HFD-32-fed mice at steatosis
Description: as §3, §2

[7] = system: 3T3-L1 adipocytes; assay: Oil Red O staining of intracellular lipids in adipocytes; assay type: cell-based, mouse; conditions: 10 μM peptide, 24 h
Description: 3T3-L1 mouse embryo fibroblasts were purchased from the American Type Culture Collection (ATCC Manassas, Va.) and maintained in a humidified atmosphere of 5% CO2, 95% air at 37° C. in Dulbecco's modified Eagle's growth medium (DMEM) with high glucose ([…]), supplemented with 10% fetal calf serum, and 1% penicillin-streptomycin. For R-Tf-D-LP4 peptide treatment, […] cells (6×10^5/ml at 70-80% confluence) were incubated with the R-Tf-D-LP4 peptide in 500 μl serum-free medium for 24 h at 37° C. and 5% CO2. The cells were then stained with Oil red O as described below.
3T3-L1 cells were washed with PBS, fixed with formaldehyde for 15 min, and then subjected to Oil Red O staining for 30 min at room temperature followed by staining with Hematoxylin. Microscope images were collected to visualize the red oil droplets in the cells. Finally, the cells were washed with H2O followed by three washes with 60% isopropanol with gentle rocking. The Oil Red O stain was extracted with 100% isopropanol for 5 min and the absorbance at 492 nm was measured and normalized to the same number of cells counted before stain extraction.

[8] = system: Langerhans islets; assay: Glucagon IHC staining of Langerhans islets (islet morphology) in STZ/HFD-32-fed mice; assay type: in vivo, mouse
Description: as §3, §2

[9] = system: STZ/HFD-32-fed mice; assay: NAFLD/diabetes mice model (STZ/HFD-32-fed mice): number and size of Langerhans islets, blood glucose; assay type: in vivo, mouse; conditions: for Average No. of islets per mouse / Total No. of islets: 14 mg/kg i.v. three times a week
Text: The HFD-32 diet was as described previously (Fujii, M., et al. Med Mol Morphol, 2013. 46(3): p. 141-52; 507.6 kcal/100 g, 56.7% kcal from fat) comprising 5% egg white powder (MM Ingredients, Wimborne, UK), 6.928% lactose (Pharma Grade, Nelson, UK), 15.88% beef fat (contains 80% fat), 5% AIN93G-mineral mixture, 0.002% tertiary butyl hydroquinone and 1.4% AIN93VX-vitamin mix (MP Biomedical, Illkirch, France), 24.5% milk casein (Shaanxi Fuheng Biotechnology, Xi'an, China), 20% safflower oil (high oleic acid content) (Bustan Briut, Galil, Israel), 6.45% sucrose, 0.43% L-cysteine, 5.5% crystalline cellulose (Sigma), 0.36% choline bitartrate and 8.25% maltodextrin (Bulk Powders, Colchester, UK). Control C57BL/6 mice were fed with a standard chow diet (408.4 kcal/100 g, 57% kcal from carbohydrates, 27% kcal from proteins, 16% from fat (V1154-703, S sniff Spezialdaten, Sosset, Germany).
as §3
At the end of the experiment, the mice were sacrificed by CO2 inhalation and the livers and pancreases were removed. Livers were photographed and the lipid content was assessed. For this purpose, part of the liver was frozen in OCT (optimal cutting temperature) compound, embedded, sectioned, and stained with oil red O. The pancreases were fixed with formaldehyde, embedded in paraffin, sectioned, and subjected to immunohistochemical (IHC) or immunefluorescent (IF) staining, as described below.
as §1
MIDI II, 3DHISTECH) with the same light intensity and exposure time. Non-specific control experiments were carried out using the same protocols but omitting incubation with primary antibodies. For IF staining, sections were incubated for 2 h with the appropriate secondary Alexa Fluor conjugated antibodies. […]

[10] = system: ob/ob mice; conditions: diabetic (ob/ob) mice and NAFLD affected mice; Pittala et al., Cells 2020; cited from earlier work
[11] = system: Ki-67; assay: Ki-67 IF staining (proliferation) in pancreas of STZ/HFD-32-fed mice; assay type: in vivo, mouse; conditions: steatosis stage; compared to chow diet-fed and STZ/HFD-32-fed mice
Description: as §3, §2

O=C(CC(CO)N1CCN(c2ccc(OC(F)(F)F)cc2)CC1)Nc1ccc(Cl)cc1 (stereo not drawn) [VBIT-4, N-(4-chlorophenyl)-4-hydroxy-3-(4-(4-(trifluoromethoxy)phenyl)piperazin-l-yl) butanamide]
glucose tolerance [1]: maintained normal glucose tolerance | hyperglycemia [1]: prevented hyperglycemia | insulin secretion [1]: stimulated insulin secretion

D-Lys-D-Trp-D-Thr-D-Trp-D-Lys-D-Asn-D-Ser-D-Asn-D-Gly-D-Ala-D-Thr-D-Trp-D-Ala-D-Leu-D-Asn-D-Val-D-Ala-D-Thr-D-Glu-D-Leu-D-Lys-D-Lys-D-Glu-D-Trp-D-Thr-D-Trp-D-Ser-His-Arg-Pro-Tyr-Ile-Ala-His [R-Tf-D-LP4]
β-oxidation in the liver ([2]; STZ/HFD-32-fed mice, Pittala et al.): accelerated β-oxidation in the liver | liver pathology ([2]; mouse model for NAFLD, WO 2017/037711, Pittala et al.): reverse liver pathology to a normal-like state | blood glucose levels [3]: reduced the levels of blood glucose | insulin production [3]: improved insulin production | number of Langerhans islets ([3]; H&E and anti-insulin staining): increased the number of islets | body weight (weekly average weight) ([3]; followed for 7 weeks): no such effect was observed | VDAC1 staining level in the islets ([4]; IHC, 14 mg/kg): this level decreased | islet morphology and size (IF co-staining VDAC1 and insulin) ([4]; steatosis stage): displayed a normal morphology and large islets | PDX1 staining level ([5]; co-staining PDX1 and glucagon, over the level in control chow-fed mice): highly increased | PDX1 staining level ([5]; co-staining PDX1 and insulin): showed a higher level of staining for PDX1 | Glut-2 expression in islets [6]: re-expressed | decrease in the amount of lipid (extraction of Oil red O stain) [7]: 90% | islet morphology (localization of glucagon-producing cells) ([8]; NASH stage): completely restored | islet morphology (localization of glucagon-producing cells) ([8]; steatosis stage): improved to some extent | number of islets per mouse, Islet size, 1-50 nm ([9]; NASH): 16 | number of islets per mouse, Islet size, 51-100 nm ([9]; NASH): 12 | number of islets per mouse, Islet size, 101-150 nm ([9]; NASH): 4 | number of islets per mouse, Islet size, 151-300 nm ([9]; NASH): 3 | Average No. of islets per mouse ([9]; NASH, week 8 to 10): 35 | Total No. of islets ([9]; NASH, week 8 to 10, n = 10): 354 (n = 10) | size and number of Langerhans islets ([9]; STZ/HFD-32-fed mice, steatosis or NASH stage): both the size and the number of Langerhans islets were increased | blood glucose levels ([9]; STZ/HFD-32 mice model): reduced blood glucose levels | insulin content within the islets ([9]; STZ/HFD-32 mice model): increased insulin content within the islets | number of islets per mouse, Islet size, 1-50 nm ([9]; Steatosis): 16 | number of islets per mouse, Islet size, 51-100 nm ([9]; Steatosis): 8 | number of islets per mouse, Islet size, 101-150 nm ([9]; Steatosis): 2 | number of islets per mouse, Islet size, 151-300 nm ([9]; Steatosis): 1 | Average No. of islets per mouse ([9]; Steatosis, week 6 to 8): 27 | Total No. of islets ([9]; Steatosis, week 6 to 8, n = 17): 451 (n = 17) | further increase of the number of islets over chow diet level ([9]; mice affected with NASH): 30% | number of the islets compared with chow diet-fed mice ([9]; mice with steatosis): to the level observed in mice fed with chow diet | blood glucose levels [10]: reduced blood glucose levels | increase in number of Ki-67 positive cells in the islet interior [11]: about 8 fold | increase in number of Ki-67 positive cells outside of the islets [11]: ~3 fold
